Source: patent US8974807B2, “Active agent combinations” (Bayer Cropscience AG, priority 2000, dated 2015)

How the values were obtained:
[1] = system: whitefly (Trialeurodes vaporariorum); assay: Trialeurodes test (Example 1), sprayed red sage infested by all stages of whitefly; assay type: in vivo; conditions: 100 g/ha, sprayed on Lantana camara at 7-day intervals; evaluation 15 days after the second treatment
Method: (§1) To produce a suitable preparation of active compound, a commercial formulation of active compound or active compound combination is mixed with water until the desired concentration is reached.
Red sage (Lantana camara) which is heavily infested by all stages of the whitefly (Trialeurodes vaporariorum) is sprayed in intervals of 7 days in each case with a preparation of active compound at the desired application rate.
Evaluation is carried out 15 days after the second treatment. 100% means that all flies have been killed, whilst 0% means that none of the flies have been killed.

[2] = system: whitefly (Trialeurodes vaporariorum); assay: Trialeurodes test (Example 2), sprayed red sage infested by whitefly, evaluated at 15, 19 and 25 days; assay type: in vivo; conditions: 100 g/ha
Method: as §1
Red sage (Lantana camara) which is heavily infested by the whitefly (Trialeurodes vaporariorum) is sprayed in intervals of 7 days in each case with a preparation of active compound at the desired application rate.
Evaluation is carried out 15, 19 and 25 days after the second treatment. 100% means that all flies have been […], whilst 0% means that none of the flies have been killed.

In the case of `N#C/N=C1\SCCN1Cc1ccc(Cl)nc1` [(16) thiacloprid, thiacloprid], the “Kill rate in %” value [1] is reported as 72.8%, the “Kill rate in % 15 days after the second treatment” value ([2]; 15 days after the second treatment) is reported as 72.8% and the “Kill rate in % 19 days after the second treatment” value ([2]; 19 days after the second treatment) is reported as 39.5%. For the same molecule, the “Kill rate in % 25 days after the second treatment” value ([2]; 25 days after the second treatment) was 0%.
